From article PMC9168383, “Structural and functional insights into the DNA damage-inducible protein 1 (Ddi1) from protozoa” (Current Research in Structural Biology, 2022)
Ends that are not written are not given here.

What was measured:
CrypDdi1-RVP [1] = molecular target: T1, CrypDdi1-RVP (Cryptosporidium hominis, UniProt A0A0S4TE75); experiment: Bio-layer interferometry (BLI), CrypDdi1-RVP; type: binding, C. hominis; details: inhibitor 75-600 μM; for binding of inhibitor to CrypDdi1-RVP: MES pH 5.5
T1 sequence (A0A0S4TE75 entry or part of it): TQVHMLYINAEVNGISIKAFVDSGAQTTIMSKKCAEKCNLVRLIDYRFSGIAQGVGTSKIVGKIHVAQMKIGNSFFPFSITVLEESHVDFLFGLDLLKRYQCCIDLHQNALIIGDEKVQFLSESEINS

ToxoDdi1-RVP [2] = molecular target: T2, ToxoDdi1-RVP (Toxoplasma gondii, UniProt S7W9N7); experiment: FRET activity assay with HIV protease substrate-1 and inhibition by HIV protease inhibitors, ToxoDdi1-RVP; type: biochemical, T. gondii
T2 sequence (S7W9N7 entry or part of it): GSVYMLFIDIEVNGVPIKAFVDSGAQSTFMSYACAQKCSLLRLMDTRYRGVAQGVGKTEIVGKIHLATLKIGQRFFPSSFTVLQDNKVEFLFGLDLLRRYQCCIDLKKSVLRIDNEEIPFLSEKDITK
Experimental: (§1) The activity assay was carried out using HIV protease substrate-1 (Sigma-aldrich). […] It contains the HIV protease cleavage site (Tyr-Pro) and two covalently modified amino acids for the detection of the proteolytic activity: the fluorophore EDANS was attached to the glutamic acid residue on the N-terminal side and the acceptor chromophore DABCYL to the lysine residue on the C-terminal side of the scissile bond. EDANS excited with light at 340 nm emits light at 490 nm which gets absorbed by the DABCYL group. Cleavage of the peptide separates the modified amino acids quenching FRET and emission could be detected at 490 nm ToxoDdi1-RVP and CrypDdi1-RVP were added in different concentrations to 2 μM of HIV protease substrate-1 in a buffer containing 0.1M sodium acetate pH 4.5, 1.0 M sodium chloride, 1.0 mM EDTA, 1.0 mM DTT and 10% DMSO. […] All the samples were incubated at 37 °C for 1 h and the fluorescence emission was recorded at 490 nm.

ToxoDdi1-RVP [3] = molecular target: T2, ToxoDdi1-RVP; experiment: biochemical; type: binding
T. gondii = details: ref Wang et al., 2019; cited from earlier work
human Ddi2 = details: ref Gu et al., 2020, Fassmannova et al.; cited from earlier work
CrypDdi1-RVP [4] = molecular target: T1, CrypDdi1-RVP; experiment: FRET activity assay with HIV protease substrate-1 and inhibition by HIV protease inhibitors, CrypDdi1-RVP; type: biochemical, C. hominis
Experimental: as §1

ToxoDdi1-RVP [5] = molecular target: T2, ToxoDdi1-RVP; experiment: HPLC cleavage of HIV protease substrate-1 by ToxoDdi1-RVP; type: biochemical, T. gondii; details: 10 μM substrate, 22 μg/ml ToxoDdi1-RVP, 100 mM sodium acetate pH 4.7, 1 M NaCl, 1 mM DTT, 37 °C, UV 490 nm
CrypDdi1-RVP [6] = molecular target: T1, CrypDdi1-RVP; experiment: HPLC cleavage of HIV protease substrate-1 by CrypDdi1-RVP; type: biochemical, C. hominis; details: 10 μM substrate, 22 μg/ml CrypDdi1-RVP, UV 490 nm
[7] = molecular target: CrypDdi1-RVP (Cryptosporidium hominis); experiment: crystal structure; CrypDdi1-RVP, microbatch, 8 mg/ml, 0.1 M MES-sodium hydroxide pH 6.0, 30% polyacrylate sodium salt, 10% ethanol, 291 K; space group H32, one molecule in the asymmetric unit, dimer by crystallographic 2-fold symmetry
LeishDdi1-fl = molecular target: T3, LeishDdi1-fl (Leishmania major, UniProt I7HUG0); experiment: BLI binding of peptides to LeishDdi1-fl; design: species or system L. major; details: 5 mM peptide immobilized on AR2G tip, LeishDdi1-fl in solution, 20 mM HEPES pH 7.5, 100 mM NaCl, 10 min, 1:1 Langmuir
T3 construct: The full length Ddi1 construct, LeishDdi1-fl (1–390 aa) was cloned in pET-28a vector; hexa-histidine (N); made in house; host or cells: E. coli BL-21
T3 sequence (I7HUG0 whole entry, the tested form may be a part): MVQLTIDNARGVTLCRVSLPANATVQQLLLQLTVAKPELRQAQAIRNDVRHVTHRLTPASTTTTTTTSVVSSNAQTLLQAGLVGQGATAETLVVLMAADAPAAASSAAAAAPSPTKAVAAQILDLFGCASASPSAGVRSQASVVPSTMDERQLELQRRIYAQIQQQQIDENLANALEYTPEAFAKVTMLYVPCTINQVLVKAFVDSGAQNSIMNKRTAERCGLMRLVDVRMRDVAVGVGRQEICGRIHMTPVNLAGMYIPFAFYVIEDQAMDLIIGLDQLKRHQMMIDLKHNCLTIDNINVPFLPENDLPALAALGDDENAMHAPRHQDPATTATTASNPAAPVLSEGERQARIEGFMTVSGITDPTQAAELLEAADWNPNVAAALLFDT

[8] = molecular target: ToxoDdi1-RVP (Toxoplasma gondii); experiment: crystal structure; ToxoDdi1-RVP, microbatch, 8 mg/ml, 1.8 M ammonium citrate tribasic pH 7.0, 30% 2-propanol, 291 K; space group P41212, six dimers in the asymmetric unit

CC(C)(C)NC(=O)[C@@H]1CN(Cc2cccnc2)CCN1C[C@@H](O)C[C@@H](Cc1ccccc1)C(=O)N[C@H]1c2ccccc2C[C@H]1O [indinavir]
binding of inhibitor to CrypDdi1-RVP (CrypDdi1-RVP [1]): do not bind

Cc1c(O)cccc1C(=O)N[C@@H](CSc1ccccc1)[C@H](O)CN1C[C@H]2CCCC[C@H]2C[C@H]1C(=O)NC(C)(C)C [nelfinavir]
effect on proteolytic activity of ToxoDdi1-RVP (ToxoDdi1-RVP [2]; 500 μM inhibitor, 20 μM ToxoDdi1-RVP, 2 μM HIV protease substrate-1, 0.1M sodium acetate pH 4.5, 1.0 M NaCl, 1.0 mM EDTA, 1.0 mM DTT, 10% DMSO, 37 °C, 1 h, emission 490 nm): has an inhibitory effect on the proteolytic activity of ToxoDdi1-RVP | fluorescence intensity in the presence of inhibitor, ToxoDdi1-RVP (ToxoDdi1-RVP [2]; 500 μM inhibitor, 20 μM ToxoDdi1-RVP, FRET, 490 nm, 37 °C, 1 h): did not increase | Kd (ToxoDdi1-RVP [3]): 238 ± 6.3 µM | binding of inhibitor to CrypDdi1-RVP (CrypDdi1-RVP [1]): do not bind | growth of T. gondii (T. gondii): inhibit the growth of T. gondii | inhibition of human Ddi2 activity (human Ddi2): ability to inhibit the activity of human Ddi2

CC(C)c1nc(CN(C)C(=O)N[C@H](C(=O)N[C@@H](Cc2ccccc2)C[C@H](O)[C@H](Cc2ccccc2)NC(=O)OCc2cncs2)C(C)C)cs1 [ritonavir]
growth of T. gondii (T. gondii): inhibit the growth of T. gondii

CC(C)(C)NC(=O)[C@@H]1C[C@@H]2CCCC[C@@H]2CN1C[C@@H](O)[C@H](Cc1ccccc1)NC(=O)[C@H](CC(N)=O)NC(=O)c1ccc2ccccc2n1 [saquinavir]
effect on proteolytic activity of CrypDdi1-RVP (CrypDdi1-RVP [4]; 500 μM inhibitor, 20 μM CrypDdi1-RVP, 2 μM HIV protease substrate-1, 0.1M sodium acetate pH 4.5, 1.0 M NaCl, 1.0 mM EDTA, 1.0 mM DTT, 10% DMSO, 37 °C, 1 h, emission 490 nm): has an inhibitory effect on the proteolytic activity of CrypDdi1-RVP | fluorescence intensity in the presence of inhibitor, CrypDdi1-RVP (CrypDdi1-RVP [4]; 500 μM inhibitor, 20 μM CrypDdi1-RVP, FRET, 490 nm, 37 °C, 1 h): did not increase | binding of inhibitor to ToxoDdi1-RVP (ToxoDdi1-RVP [3]; BLI, inhibitor 75-600 μM, MES pH 5.5): do not bind | Kd (CrypDdi1-RVP [1]; Octet Red96, His-tagged CrypDdi1-RVP on Ni-NTA tip, 100 mM MES pH 5.5, 150 mM NaCl, 0.5% BSA, 0.05% Tween 20, 3 min, 1:1 Langmuir): 242 ± 3 µM

Arg-Glu(EDANS)-Ser-Gln-Asn-Tyr-Pro-Ile-Val-Gln-Lys(DABCYL)-Arg [HIV protease substrate-1, synthetic FRET peptide containing the HIV protease cleavage site (Tyr-Pro), Sigma-aldrich]
substrate cleavage: fluorescence intensity with increasing protein concentration, ToxoDdi1-RVP (ToxoDdi1-RVP [2]; 2 μM substrate, no inhibitor, different ToxoDdi1-RVP concentrations): An increase in the fluorescence intensity was observed with increasing protein concentration | substrate cleavage: fluorescence intensity with increasing protein concentration, CrypDdi1-RVP (CrypDdi1-RVP [4]; 2 μM substrate, no inhibitor, different CrypDdi1-RVP concentrations): An increase in the fluorescence intensity was observed with increasing protein concentration | substrate cleavage by HPLC, ToxoDdi1-RVP, 1 h (ToxoDdi1-RVP [5]): completely cleaved | substrate cleavage by HPLC, CrypDdi1-RVP, 1 h (CrypDdi1-RVP [6]; 100 mM sodium acetate pH 4.7, 1 M NaCl, 1 mM DTT, 37 °C, 1 h): completely cleaved | substrate cleavage by HPLC, CrypDdi1-RVP, 30 min (CrypDdi1-RVP [6]; pH 4.7, 37 °C, 30 min): both the substrate and the product were detected

CrypDdi1-RVP (domain or fragment)
stoichiometry N [7]: 2

GVGRQEI [GVGRQEI]
Kd (LeishDdi1-fl): 25.3 ± 3.5 µM

MIWRKPW [MIWRKPW]
Kd (LeishDdi1-fl): 2.8 ± 1.5 µM

ToxoDdi1-RVP (domain or fragment)
stoichiometry N [8]: 2
